Article PMC2994747, “Molecular Characterization of c-Abl/c-Src Kinase Inhibitors Targeted against Murine Tumour Progenitor Cells that Express Stem Cell Markers” (PLoS ONE, 2010)
pKi: −log10 of the molar value.

Columns and labels:
[1] = tested on: tumour cell lines; assay: Cell cycle analysis, statements over the cell line panel; type: cell-based; details: IC50 concentration, 96 h
Procedure: CycleTEST™ PLUS DNA Reagent Kit (Becton Dickinson GmbH, Heidelberg, Germany) for cell cycle analysis was used, according to the instructions of the manufacturer. Briefly, the cells were harvested with trypsin, washed with PBS, and resuspended in CycleTEST Buffer. The cells were centrifuged and resuspended in solution A. After incubation for 10 min at room temperature, solution B was added and incubated. After adding solution C, the samples were incubated at 4°C protected from light. The samples were stored on ice and protected from light until analysis by FACScan flow cytometer (Becton Dickinson GmbH, Heidelberg, Germany).

[2] = tested on: CaCo2; assay: Whole genome expression analysis (Affymetrix microarray); type: cell-based, human
Procedure: (§1) The cells were harvested and RNA was isolated using RNeasy Mini Kit (Qiagen, Hilden, Germany) according to the instructions of the manufacturer. The isolated RNA (250 ng) was processed further using standard protocols as described recently with the exception of the 3′ IVT Express Kit (Affymetrix, High Wycombe, UK) that was utilized according to instructions. Quality control of cRNA was done with the Agilent 2100 Bioanalyzer (Agilent Tech according to manufacturer's protocols. Following fragmentation, cRNA of each sample was hybridized to Affymetrix GeneChip® Mouse Genome 430 2.0 or Human Genome U133 Plus 2.0 and scanned with an Affymetrix 3000 7G scanner.
(§2) The resultant data was normalized by Probe Logarithmic Intensity Error Estimation (PLIER) algorithm. Statistical analysis was carried out with the ArrayTrack software (National Center for Toxicological Research/FDA, Jefferson, AR, USA) using SAM algorithm.

[3] = tested on: A549; assay: as above; type: cell-based, human
Procedure: as §1, §2

[4] = tested on: HepG2; assay: as above; type: cell-based, human
Procedure: as §1, §2

[5] = molecular target: T1, c-Src (Homo sapiens, UniProt P12931); assay: Src filter-binding kinase assay (Src Assay Kit); type: biochemical; details: isolated Src; calculated from ID50, ATP-competitive; E0 0.005, S0 0.012 µM
T1 construct: His tag; purchased Upstate (Lake Placid, NY, USA)
Procedure: Baculovirus-produced recombinant purified his-tagged active against human Src and Abl were purchased from Upstate (Lake Placid, NY, USA).
Src activity was measured in a filter-binding assay using the Src Assay Kit (Upstate, Lake Placid, NY, USA), according to the manufacturer's protocol, using the specific Src peptide substrate [[…]] in the presence of 0.125 pmol of Src and 0.160 pmol of [γ-^32P]ATP. Abl activity was measured in a filter-binding assay using an Abl specific peptide substrate (Abtide, Upstate). Reaction conditions were (in a final volume of 10 µl): 25 mM Tris-HCl pH 7.5, 1 mM DTT, 0.012 µM [γ-^32P]ATP, 0.022 µM c-Abl. Reactions were incubated 10 min at 30°C.The samples (9 µl) were spotted on paper cellulose filters which were washed according to the manufacturer's protocol. Filter-bound radioactivity was measured by liquid scintillation with a Microbeta-Trilux apparatus (PerkinElmer, Waltham, MA, USA).
The ID50 were converted to Ki according to a competitive mechanism with respect to the substrate ATP. […] Since (i) the ATP concentration was limiting, i.e., [ATP], Km(ATP), and (ii) the enzyme concentration was not negligible with respect to the ATP concentration, the classical Cheng-Prusoff relationship was not applicable. Consequently, Ki values were calculated according to [drawing 3] (2) where S0 is the concentration of the competing substrate (ATP) and E0 is the concentration of the enzyme. Each experiment was done in triplicate and mean values were used for the interpolation. Curve fitting was performed with the program GraphPad Prism.

[6] = IC50 concentration, 96 h, SAM FDR<0.01, FC>2

T1 sequence (P12931 whole entry): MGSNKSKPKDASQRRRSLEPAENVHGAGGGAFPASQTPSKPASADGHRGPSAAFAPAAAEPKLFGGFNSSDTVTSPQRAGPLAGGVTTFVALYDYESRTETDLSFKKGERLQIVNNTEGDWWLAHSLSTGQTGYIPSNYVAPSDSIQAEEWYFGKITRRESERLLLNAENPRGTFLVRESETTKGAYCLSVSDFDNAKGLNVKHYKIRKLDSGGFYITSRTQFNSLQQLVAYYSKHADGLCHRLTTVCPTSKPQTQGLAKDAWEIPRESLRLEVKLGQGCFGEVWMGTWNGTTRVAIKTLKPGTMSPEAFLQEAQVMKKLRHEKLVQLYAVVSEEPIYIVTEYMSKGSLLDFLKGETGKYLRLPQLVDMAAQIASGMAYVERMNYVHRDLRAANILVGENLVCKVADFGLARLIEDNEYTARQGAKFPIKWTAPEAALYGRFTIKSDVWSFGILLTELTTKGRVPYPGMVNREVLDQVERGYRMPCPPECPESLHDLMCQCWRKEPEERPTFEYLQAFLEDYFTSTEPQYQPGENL

## Fc1ccccc1CNc1ncnc2c1cnn2CC(Cl)c1ccc(Br)cc1 (centres unmarked) [Si162]
[1]
  Cell cycle arrest (phase, in words): arrest in G2/M
[2]
  Cav1 (caveolin 1, caveolae protein, 22kDa) regulated gene, Si162 vs Ktr FC: 2.45
  Ceacam6 (carcinoembryonic antigen-related cell adhesion molecule 6) regulated gene, Si162 vs Ktr FC: 1.49
  Mmp1 (matrix metallopeptidase 1 (interstitial collagenase)) regulated gene, Si162 vs Ktr FC: 1.71
  Pmaip1 (phorbol-12-myristate-13-acetate-induced protein 1 (Noxa)) regulated gene, Si162 vs Ktr FC: 1.12
  Tuba1a (tubulin, alpha 1a) regulated gene, Si162 vs Ktr FC: 1.01
  Vim (vimentin) regulated gene, Si162 vs Ktr FC: 1.80
[2]; [6]
  Significantly differentially regulated genes, downregulated (number): 6
  Significantly differentially regulated genes, upregulated (number): 75
[3]
  Acta2 (actin, alpha 2, smooth muscle, aorta) regulated gene, Si162 vs Ktr FC: 2.46
  Birc5 (baculoviral IAP repeat-containing 5) regulated gene, Si162 vs Ktr FC: -6.60
  Capn12 (calpain 12) regulated gene, Si162 vs Ktr FC: 1.16
  Ccna2 (cyclin A2) regulated gene, Si162 vs Ktr FC: -6.93
  Ccnb1 (cyclin B1) regulated gene, Si162 vs Ktr FC: -5.43
  Ccnb2 (cyclin B2) regulated gene, Si162 vs Ktr FC: -6.15
  Cdc2 (cell division cycle 2 (Cdk1)) regulated gene, Si162 vs Ktr FC: -7.06
  Cdh1 (cadherin 1, type 1, E-cadherin (epithelial)) regulated gene, Si162 vs Ktr FC: 1.36
  Cdkn1a (cyclin-dependent kinase inhibitor 1A (p21Cip1)) regulated gene, Si162 vs Ktr FC: 2.54
  Cdkn3 (cyclin-dependent kinase inhibitor 3) regulated gene, Si162 vs Ktr FC: -5.90
  Ceacam6 (carcinoembryonic antigen-related cell adhesion molecule 6) regulated gene, Si162 vs Ktr FC: 3.24
  Cenpa (centromere protein A) regulated gene, Si162 vs Ktr FC: -6.17
  Ctsb (cathepsin B) regulated gene, Si162 vs Ktr FC: 1.38
  Dgka (diacylglycerol kinase, alpha 80kDa) regulated gene, Si162 vs Ktr FC: 1.92
  E2F1 (E2F transcription factor 1) regulated gene, Si162 vs Ktr FC: -6.54
  Fas (Fas (TNF receptor superfamily, member 6)) regulated gene, Si162 vs Ktr FC: 2.18
  Fn1 (fibronectin 1) regulated gene, Si162 vs Ktr FC: 1.40
  Gadd45a (growth arrest and DNA-damage-inducible, alpha) regulated gene, Si162 vs Ktr FC: 1.46
  Gsk3b (glycogen synthase kinase 3 beta) regulated gene, Si162 vs Ktr FC: 1.51
  Inpp5d (inositol polyphosphate-5-phosphatase, 145kDa) regulated gene, Si162 vs Ktr FC: 2.27
  Itgb4 (integrin, beta 4) regulated gene, Si162 vs Ktr FC: 1.48
  Jun (jun oncogene) regulated gene, Si162 vs Ktr FC: 1.36
  Mdm2 (Mdm2 p53 binding protein homolog (mouse)) regulated gene, Si162 vs Ktr FC: 1.96
  Plk1 (polo-like kinase 1 (Drosophila)) regulated gene, Si162 vs Ktr FC: -2.12
  Ptgs2 (prostaglandin-endoperoxide synthase 2) regulated gene, Si162 vs Ktr FC: 1.27
  Tgfb1i1 (transforming growth factor beta 1 induced transcript 1) regulated gene, Si162 vs Ktr FC: 1.15
  Tuba1a (tubulin, alpha 1a) regulated gene, Si162 vs Ktr FC: 1.06
  Vtn (vitronectin) regulated gene, Si162 vs Ktr FC: 4.54
[3]; [6]
  Significantly differentially regulated genes, downregulated (number): 472
  Significantly differentially regulated genes, upregulated (number): 785
[4]
  Akt2 (v-akt murine thymoma viral oncogene homolog 2) regulated gene, Si162 vs Ktr FC: -4.47
  Bcl2l1 (BCL2-like 1) regulated gene, Si162 vs Ktr FC: 1.08
  Birc5 (baculoviral IAP repeat-containing 5) regulated gene, Si162 vs Ktr FC: -4.98
  Capn2 (calpain 2, (m/II) large subunit) regulated gene, Si162 vs Ktr FC: 2.34
  Casp3 (caspase 3, apoptosis-related cysteine peptidase) regulated gene, Si162 vs Ktr FC: 1.08
  Casp6 (caspase 6, apoptosis-related cysteine peptidase) regulated gene, Si162 vs Ktr FC: 1.01
  Cdc2 (cell division cycle 2 (Cdk1)) regulated gene, Si162 vs Ktr FC: -5.34
  Cdh1 (cadherin 1, type 1, E-cadherin (epithelial)) regulated gene, Si162 vs Ktr FC: 1.32
  Cdkn1a (cyclin-dependent kinase inhibitor 1A (p21Cip1)) regulated gene, Si162 vs Ktr FC: 1.62
  Cdkn2a (cyclin-dependent kinase inhibitor 2A (p16)) regulated gene, Si162 vs Ktr FC: 2.03
  Cdkn2b (cyclin-dependent kinase inhibitor 2B (p15)) regulated gene, Si162 vs Ktr FC: 3.43
  Cenpa (centromere protein A) regulated gene, Si162 vs Ktr FC: -4.35
  Egfr (epidermal growth factor receptor) regulated gene, Si162 vs Ktr FC: 1.36
  Fas (Fas (TNF receptor superfamily, member 6)) regulated gene, Si162 vs Ktr FC: 2.46
  Grb10 (growth factor receptor-bound protein 10) regulated gene, Si162 vs Ktr FC: 1.12
  Jun (jun oncogene) regulated gene, Si162 vs Ktr FC: 1.14
  Mdm2 (Mdm2 p53 binding protein homolog (mouse)) regulated gene, Si162 vs Ktr FC: 1.15
  Mmp3 (matrix metallopeptidase 3 (stromelysin 1, progelatinase)) regulated gene, Si162 vs Ktr FC: 4.17
  Pdgfrb (platelet-derived growth factor receptor, beta polypeptide) regulated gene, Si162 vs Ktr FC: -4.81
  Pmaip1 (phorbol-12-myristate-13-acetate-induced protein 1 (Noxa)) regulated gene, Si162 vs Ktr FC: 1.37
  Tgfb1i1 (transforming growth factor beta 1 induced transcript 1) regulated gene, Si162 vs Ktr FC: 1.86
  Tuba1a (tubulin, alpha 1a) regulated gene, Si162 vs Ktr FC: 4.28
[4]; IC50 concentration, 96 h
  Differentially expressed genes, total (number): more than 1400
[4]; [6]
  Significantly differentially regulated genes, downregulated (number): 707
  Significantly differentially regulated genes, upregulated (number): 717
[5]
  pKi: 7.38
